Structures can show the parent of a compound that is named as a salt. Where only a bound is given, the exact number is not on record here.

For orientation: IC50 means the concentration that inhibits the measured activity by half.

In this test the target is T1, α4β7 (adhesion of RPMI cells to CS-1) (Homo sapiens, UniProt P13612+P26010).
T1 construct: endogenous in cells
T1 sequence (P13612 34-1032): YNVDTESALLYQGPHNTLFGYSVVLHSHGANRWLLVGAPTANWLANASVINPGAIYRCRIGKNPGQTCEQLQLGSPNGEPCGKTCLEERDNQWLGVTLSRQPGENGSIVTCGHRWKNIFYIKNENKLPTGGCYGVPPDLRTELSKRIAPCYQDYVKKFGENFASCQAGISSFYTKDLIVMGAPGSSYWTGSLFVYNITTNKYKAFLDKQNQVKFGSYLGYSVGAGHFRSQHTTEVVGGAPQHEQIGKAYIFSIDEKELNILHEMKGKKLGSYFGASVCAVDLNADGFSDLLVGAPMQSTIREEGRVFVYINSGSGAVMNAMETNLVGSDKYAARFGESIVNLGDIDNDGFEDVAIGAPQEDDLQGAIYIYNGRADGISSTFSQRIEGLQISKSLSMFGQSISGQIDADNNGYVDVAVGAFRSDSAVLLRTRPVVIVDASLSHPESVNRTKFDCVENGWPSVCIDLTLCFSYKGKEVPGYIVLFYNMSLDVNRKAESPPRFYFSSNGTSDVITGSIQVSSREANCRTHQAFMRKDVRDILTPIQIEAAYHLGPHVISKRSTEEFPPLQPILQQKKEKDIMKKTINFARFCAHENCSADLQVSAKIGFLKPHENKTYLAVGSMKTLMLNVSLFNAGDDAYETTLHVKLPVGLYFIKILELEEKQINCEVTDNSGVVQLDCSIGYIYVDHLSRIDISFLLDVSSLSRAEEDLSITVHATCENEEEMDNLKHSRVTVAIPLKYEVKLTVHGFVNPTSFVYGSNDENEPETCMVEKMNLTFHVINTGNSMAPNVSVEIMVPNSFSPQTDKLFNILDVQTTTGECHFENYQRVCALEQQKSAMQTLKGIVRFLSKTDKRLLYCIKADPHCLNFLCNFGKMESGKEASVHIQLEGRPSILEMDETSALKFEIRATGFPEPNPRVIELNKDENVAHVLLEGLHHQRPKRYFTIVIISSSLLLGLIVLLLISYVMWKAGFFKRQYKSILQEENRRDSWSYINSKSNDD
T1 sequence (P26010 20-798): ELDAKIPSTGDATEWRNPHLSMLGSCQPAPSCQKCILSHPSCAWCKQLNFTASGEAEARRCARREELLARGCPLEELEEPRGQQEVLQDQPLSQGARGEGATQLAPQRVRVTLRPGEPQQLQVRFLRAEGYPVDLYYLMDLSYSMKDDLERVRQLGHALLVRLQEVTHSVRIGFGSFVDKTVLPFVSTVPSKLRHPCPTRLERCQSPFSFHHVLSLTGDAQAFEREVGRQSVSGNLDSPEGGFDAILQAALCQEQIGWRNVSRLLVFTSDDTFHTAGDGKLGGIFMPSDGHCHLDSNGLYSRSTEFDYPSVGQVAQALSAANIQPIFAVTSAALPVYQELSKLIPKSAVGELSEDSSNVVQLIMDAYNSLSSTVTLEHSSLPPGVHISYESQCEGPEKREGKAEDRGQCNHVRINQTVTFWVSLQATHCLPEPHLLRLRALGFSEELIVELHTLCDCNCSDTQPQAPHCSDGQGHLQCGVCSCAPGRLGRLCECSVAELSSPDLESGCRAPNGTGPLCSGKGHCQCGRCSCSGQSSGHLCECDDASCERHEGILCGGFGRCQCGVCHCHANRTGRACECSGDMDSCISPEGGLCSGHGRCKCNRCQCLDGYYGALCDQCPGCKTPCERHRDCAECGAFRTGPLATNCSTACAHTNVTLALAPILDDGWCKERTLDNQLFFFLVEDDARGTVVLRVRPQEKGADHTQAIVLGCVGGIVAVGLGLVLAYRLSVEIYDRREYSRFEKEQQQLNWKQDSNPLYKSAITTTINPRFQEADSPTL
The test is described as follows: RPMI-CS-1 cell adhesion assay. The class given is cell-based. The following applies: adhesion of RPMI B-cell line (expresses α4β7) to CS-1 peptide coated microwells; read-out: RPMI-CS-1 IC50 value range. The protocol:
RPMI-CS-1 Cell Adhesion Assay:
The test compounds were added in increasing concentrations to RPMI cells and then the cell-compound mixture was added to CS-1 coated microwells. The plates were incubated, washed and the percentage of attached cells were quantitated.
The CS-1 derived peptide, […], and the scrambled control peptide, […], were synthesized at Tanabe Research Laboratories, USA, Inc. on a Beckman 990 synthesizer using t-Boc methodology. […] Microtiter plates were coated with 20 μg/ml human serum albumin (HSA) for 2 hours at room temperature, washed once with PBS and derivatized with 10 μg/ml SPDP for 1 hour. […] Unbound peptide was removed from the plates by washing with PBS. To block non-reacted sites, the plates were coated with 100 μl of a 2.5 mg/ml BSA solution in PBS for one hour at 37° C. 100 μl of RPMI cells (2.5×10^6 cells/ml) in Dulbecco's Modified Eagles Medium (DMEM) plus 0.25% ovalbumin were added to peptide coated dishes and incubated for 1 hour at 37° C. […] To do this, the enzyme substrate p-nitrophenyl-N-acetyl-β-D-glucoseaminide is dissolved at 7.5 mM in 0.1 M citrate buffer pH 5 and then mixed with an equal volume of 0.5% Triton X100. 50 μl of the substrate solution was added to the plates and the plates were incubated at 37° C. for 60 minutes.
In this assay, IC50 value ranges (μM) are depicted by A, B, C and D. These ranges as follows. D>5≧C>1≧B>0.3≧A
On to `CCCCCC(=O)Nc1cccc(-c2ccc(C[C@H](NC(=O)c3c(Cl)cccc3Cl)C(=O)O)cc2)c1` [Example 126], for which the IC50 was in the range of 1000 to 5000 nM.

In the case of `COc1cccc(OC)c1-c1ccc(C[C@H](NC(=O)c2c(Cl)cccc2Cl)c2nnn[nH]2)cc1` [Example 270, (1S)-N-(2,6-Dichlorobenzoyl)-2-[4-(2,6-dimethoxyphenyl)phenyl]-1-(1H-tetrazol-5-yl) ethylamine], the IC50 was less than 300 nM. Under `COc1cc(CN2CCOCC2)cc(OC)c1-c1ccc(C[C@H](NC(=O)c2c(Cl)cccc2Cl)C(=O)O)cc1` [Example 133] stands less than 300 nM; under `COc1cccc(OC)c1-c1ccc(C[C@H](NC(=O)c2ccc(NS(C)(=O)=O)cc2Cl)C(=O)O)cc1` [Example 77], less than 300 nM. To `COc1cc(OCc2c(Cl)cccc2Cl)cc(OC)c1-c1ccc(C[C@H](NC(=O)c2c(Cl)cccc2Cl)C(=O)O)cc1` [Example 221, N-(2,6-Dichlorobenzoyl)-4-[2,6-dimethoxy-4-[(2,6-dichlorophenyl)methoxy]phenyl]-L-phenylalanine] belongs 1000 to 5000 nM; to `NCc1ccccc1-c1ccc(C[C@H](NC(=O)c2c(Cl)cccc2Cl)C(=O)O)cc1` [Example 47, N-(2,6-Dichlorobenzoyl)-4-[2-(aminomethyl)phenyl]-L-phenylalanine], less than 300 nM. Under `COc1ccccc1-c1ccc(C[C@H](NC(=O)c2ccc(C(N)=O)cc2Cl)C(=O)O)cc1` [Example 178, N-[2-Chloro-4-carbamoylbenzoyl]-4-(2-methoxyphenyl)-L-phenylalanine] stands less than 300 nM; under `COc1cccc(OC)c1-c1ccc(C[C@H](NC(=O)c2c(Cl)cccc2Cl)C(=O)NO)cc1` [Example 268, N-(2,6-dichlorobenzoyl)-4-(2,6-dimethoxyphenyl)-L-phenylalanine N-hydroxyamide], 1000 to 5000 nM. For the molecule `COc1cccc(OC)c1-c1ccc(C[C@H](NC(=O)c2c(Cl)cccc2Cl)C(=O)NS(C)(=O)=O)cc1` [Example 267, N-(2,6-Dichlorobenzoyl)-4-(2,6-dimethoxyphenyl)-L-phenylalanine N-(methylsulfonyl)amide], the half-maximal inhibitory concentration (IC50) was greater than 5000 nM. To `CCCOc1ccc(C(=O)N[C@@H](Cc2ccc(-c3c(OC)cccc3OC)cc2)C(=O)O)c(Cl)c1` [Example 286] belongs less than 300 nM. For the molecule `CN1CCCC1CCOc1ccccc1-c1ccc(C[C@H](NC(=O)c2c(Cl)cccc2Cl)C(=O)O)cc1` (some centres unmarked) [Example 43], the IC50 fell in the range of 1000 to 5000 nM. Under `O=C(N[C@@H](Cc1ccc(-c2c(O)ccc3c2OCO3)cc1)C(=O)O)c1c(Cl)cccc1Cl` [Example 236, N-(2,6-Dichlorobenzoyl)-4-(2,3-methylenedioxy-6-hydroxyphenyl)-L-phenylalanine] stands less than 300 nM. Take `CCOC(=O)Nc1ccc(C(=O)N[C@@H](Cc2ccc(-c3ccccc3OC)cc2)C(=O)O)c(Cl)c1` [Example 66, N-[2-Chloro-4-(ethoxycarbonylamino)benzoyl]-4-(2-methoxyphenyl)-L-phenylalanine]: the IC50 is less than 300 nM. Under “N-(2,6-Dichlorobenzoyl)-4-(2,6-dimethoxyphenyl)-L-phenylalanine 2-pyridylmethyl ester [Example 272]” stands 300 to 1000 nM.

For the molecule `COc1ccccc1-c1ccc(C[C@H](NC(=O)c2cccnc2Cl)C(=O)O)cc1` [Example 90], the IC50 lay within 300 to 1000 nM. Turning to `COc1ccccc1-c1ccc(C[C@H](NC(=O)c2cnccn2)C(=O)O)cc1` [Example 103], the half-inhibitory concentration (IC50) is greater than 5000 nM.

For `COc1cc(C#N)c(-c2ccc(C[C@H](NC(=O)c3c(Cl)cccc3Cl)C(=O)O)cc2)c(OC)c1` [Example 142], the half-inhibitory concentration (IC50) was less than 300 nM. As to `COCc1ccccc1-c1ccc(C[C@H](NC(=O)c2c(Cl)cccc2Cl)C(=O)O)cc1` [Example 51, N-(2,6-Dichlorobenzoyl)-4-[2-(methoxymethyl)phenyl]-L-phenylalanine], the IC50 is 300 to 1000 nM. For the molecule `COc1ccccc1-c1ccc(C[C@H](NC(=O)c2c(F)cccc2Cl)C(=O)O)cc1` [Example 86], the IC50 is less than 300 nM. To `COc1ccccc1-c1ccc(C[C@H](NC(=O)c2ccc(-n3cccc3CO)cc2Cl)C(=O)O)cc1` [Example 291, N-[2-Chloro-4-(2-hydroxymethyl-1-pyrrolyl)benzoyl]-4-(2-methoxyphenyl)-L-phenylalanine] belongs 1000 to 5000 nM. For the molecule `COc1cccc(OC)c1-c1ccc(C[C@H](NC(=O)c2c(Cl)cc(NS(=O)(=O)C(F)(F)F)cc2Cl)C(=O)O)cc1` [Example 184, N-[2,6-Dichloro-4-[(trifluoromethanesulfonyl)amino]benzoyl]-4-(2,6-dimethoxyphenyl)-L-phenylalanine], the IC50 was less than 300 nM. In the case of `Cc1ccc(-c2ccc(C[C@H](NC(=O)c3c(Cl)cccc3Cl)C(=O)O)cc2)cc1` [Example 117], the IC50 lay in the range of 1000 to 5000 nM. Under `CCOC(=O)[C@H](Cc1ccc(-c2c(OC)cc(CN(C)C)cc2OC)cc1)NC(=O)c1c(Cl)cccc1Cl` [Example 259, N-(2,6-Dichlorobenzoyl)-4-[2,6-dimethoxy-4-[(N,N-dimethylamino)methyl]phenyl]-L-phenylalanine ethyl ester hydrochloride] stands less than 300 nM; under `COc1ccccc1-c1ccc(C[C@H](NC(=O)[C@H](C)c2ccccc2)C(=O)O)cc1` [Example 78], 300 to 1000 nM; under `COc1ccccc1-c1ccc(C[C@H](NC(=O)c2ccc(S(C)(=O)=O)cc2Cl)C(=O)O)cc1` [Example 211], less than 300 nM.

In the case of `COc1ccccc1-c1ccc(C[C@H](NC(=O)c2ccc(NS(=O)(=O)C(F)(F)F)cc2Cl)C(=O)O)cc1` [Example 65, N-[2-Chloro-4-(trifluoromethanesulfonylamino)benzoyl]-4-(2-methoxyphenyl)-L-phenylalanine], the concentration for half-maximal inhibition (IC50) is less than 300 nM. Under `COc1cccc(OC)c1-c1ccc(C[C@H](NC(=O)c2ccccc2C(C)C)C(=O)O)cc1` [Example 280] stands less than 300 nM. Consider `O=C(O)COc1ccccc1-c1ccc(C[C@H](NC(=O)c2c(Cl)cccc2Cl)C(=O)O)cc1` [Example 32, N-(2,6-Dichlorobenzoyl)-4-[2-(carboxymethoxy)-phenyl]-L-phenylalanine], for which the half-inhibitory concentration (IC50) was less than 300 nM. Under `COc1ccccc1-c1ccc(C[C@H](NC(=O)c2ccccc2NC(C)=O)C(=O)O)cc1` [Example 105] stands greater than 5000 nM.

Values taken from patent US6855843B2, “Inhibitors of α4 mediated cell adhesion” (Tanabe Seiyaku Co., Ltd., priority 1998, dated 2005).
